# Reference: US20160280688A1, “SUBSTITUTED PHENYLALANINE DERIVATIVES” (BAYER PHARMA AKTIENGESELLSCHAFT, priority 2013, published 2016)
# pIC50: −log10 of the molar value. Structures can show the parent of a compound that is named as a salt.
# Assays:
# [1] = target: T1, human factor XIa (Homo sapiens, UniProt P03951); assay: Measurement of FXIa inhibition (fluorogenic peptide substrate Boc-Glu(OBzl)-Ala-Arg-AMC); assay type: biochemical; conditions: factor XIa from Kordia, 15 min preincubation, 30 min at 22° C., fluorescence
# T1 construct: purchased Kordia
# T1 sequence (P03951 388-625 limits assumed): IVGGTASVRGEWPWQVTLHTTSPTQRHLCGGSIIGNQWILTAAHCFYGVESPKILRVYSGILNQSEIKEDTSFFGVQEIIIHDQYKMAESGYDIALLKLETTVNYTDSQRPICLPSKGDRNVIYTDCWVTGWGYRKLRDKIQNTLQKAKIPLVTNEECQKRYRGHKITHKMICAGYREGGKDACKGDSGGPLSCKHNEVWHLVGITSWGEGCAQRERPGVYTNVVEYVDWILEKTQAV
# T1 sequence (P03951 19-387 partner limits assumed): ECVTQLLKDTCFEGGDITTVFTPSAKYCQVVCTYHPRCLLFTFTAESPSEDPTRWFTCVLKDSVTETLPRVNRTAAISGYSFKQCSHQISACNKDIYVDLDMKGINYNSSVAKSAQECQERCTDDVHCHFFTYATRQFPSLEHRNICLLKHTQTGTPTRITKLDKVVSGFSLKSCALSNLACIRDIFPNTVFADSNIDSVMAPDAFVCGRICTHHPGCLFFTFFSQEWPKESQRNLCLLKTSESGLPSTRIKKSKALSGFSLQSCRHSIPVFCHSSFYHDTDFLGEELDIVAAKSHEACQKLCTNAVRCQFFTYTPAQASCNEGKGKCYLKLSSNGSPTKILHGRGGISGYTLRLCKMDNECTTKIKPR
# Experimental: To determine the factor XIa inhibition of the substances according to the invention, a biochemical test system is used which utilizes the reaction of a peptidic factor XIa substrate to determine the enzymatic activity of human factor XIa. Here, factor XIa cleaves from the peptic factor XIa substrate the C-terminal aminomethylcoumarin (AMC), the fluorescence of which is measured. The determinations are carried out in microtitre plates.
# (§1) Test substances are dissolved in dimethyl sulphoxide and serially diluted in dimethyl sulphoxide (3000 μM to 0.0078 μM; resulting final concentrations in the test: 50 μM to 0.00013 μM). In each case 1 μl of the diluted substance solutions are placed into the wells of white microtitre plates from Greiner (384 wells). Subsequently, the following are added successively: 20 μl of assay buffer (50 mmol/l Tris buffer pH 7.4; 100 mmol/l sodium chloride; 5 mmol/l calcium chloride; 0.1% bovine serum albumin) and 20 μl of factor XIa from Kordia (0.45 nM in assay buffer). After 15 min of incubation, the enzyme reaction is started by addition of 20 μl of the factor XIa substrate Boc-Glu(OBzl)-Ala-Arg-AMC dissolved in assay buffer (10 μM in assay buffer) from Bachem, the mixture is incubated at room temperature (22° C.) for 30 min and fluorescence is then measured (excitation: 360 nm, emission: 460 nm). The measured emissions of the test batches with test substance are compared to those of control batches without test substance (only dimethyl sulphoxide instead of test substance in dimethyl sulphoxide), and IC50 values are calculated from the concentration/activity relationships.
# [2] = target: T2, human plasmin (Homo sapiens, UniProt P00747); assay: Measurement of plasmin inhibition (fluorogenic peptide substrate MeOSuc-Ala-Phe-Lys-AMC); assay type: biochemical; conditions: plasmin from Kordia, 15 min preincubation, 30 min at 22° C., fluorescence
# T2 construct: purchased Kordia
# T2 sequence (P00747 581-810 limits assumed): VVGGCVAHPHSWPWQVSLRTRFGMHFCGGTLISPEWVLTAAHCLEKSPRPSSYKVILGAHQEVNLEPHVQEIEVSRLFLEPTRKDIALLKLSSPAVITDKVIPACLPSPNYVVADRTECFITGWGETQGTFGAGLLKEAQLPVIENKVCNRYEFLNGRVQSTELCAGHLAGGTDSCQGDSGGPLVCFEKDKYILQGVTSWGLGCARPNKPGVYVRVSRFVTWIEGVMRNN
# T2 sequence (P00747 97-580 partner limits assumed): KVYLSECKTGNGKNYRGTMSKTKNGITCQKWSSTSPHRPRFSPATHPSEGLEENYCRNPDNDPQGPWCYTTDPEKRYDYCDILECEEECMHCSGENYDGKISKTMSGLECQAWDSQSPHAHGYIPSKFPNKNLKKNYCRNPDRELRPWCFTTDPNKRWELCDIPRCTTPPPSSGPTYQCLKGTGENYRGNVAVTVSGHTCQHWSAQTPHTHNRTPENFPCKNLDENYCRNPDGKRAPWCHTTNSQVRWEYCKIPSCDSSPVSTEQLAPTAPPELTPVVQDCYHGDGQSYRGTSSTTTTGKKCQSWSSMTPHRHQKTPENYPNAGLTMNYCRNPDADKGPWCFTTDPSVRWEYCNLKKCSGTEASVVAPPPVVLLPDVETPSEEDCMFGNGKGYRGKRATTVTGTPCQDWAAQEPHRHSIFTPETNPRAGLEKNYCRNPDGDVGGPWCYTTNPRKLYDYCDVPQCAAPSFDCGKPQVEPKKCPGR
# Experimental: The plasmin inhibition of the inventive substances is determined using a biochemical test system which utilizes the reaction of a peptidic plasmin substrate to determine the enzymatic activity of human plasmin. Here, plasmin cleaves from the peptic plasmin substrate the C-terminal aminomethylcoumarin (AMC), the fluorescence of which is measured. The determinations are carried out in microtitre plates.
# as §1, with “plasmin” for “factor XIa”, “(0.3 μg/ml” for “(0.45 nM”, “MeOSuc-Ala-Phe-Lys-AMC” for “Boc-Glu(OBzl)-Ala-Arg-AMC”, “(150” for “(10”, “ICso” for “IC50”
Structure (SMILES),pIC50 [1],pIC50 [2]
"Cc1cc2[nH]c(C(C)C)nc2cc1-c1ccc(C[C@@H](NC(=O)C2CCC(CN)CC2)C(=O)Nc2ccc3[nH]c(=O)[nH]c3c2)cc1 (single isomer, unassigned; enantiomer 1) [Example 38, N-alpha-{[trans-4-(Aminomethyl)cyclohexyl]carbonyl}-4-(2-isopropyl-6-methyl-1H-benzimidazol-5-yl)-N-(2-oxo-2,3-dihydro-1H-benzimidazol-5-yl)-D-phenylalaninamide hydrochloride (Enantiomer 1)]",7.43,7.70
"Cc1cc2[nH]c(C(C)C)nc2cc1-c1ccc(C[C@H](NC(=O)C2CCC(CN)CC2)C(=O)Nc2ccc3[nH]c(=O)[nH]c3c2)cc1 (single isomer, unassigned; enantiomer 2) [Example 39, N-alpha-{[trans-4-(Aminomethyl)cyclohexyl]carbonyl}-4-(2-isopropyl-6-methyl-1H-benzimidazol-5-yl)-N-(2-oxo-2,3-dihydro-1H-benzimidazol-5-yl)-L-phenylalaninamide hydrochloride (Enantiomer 2)]",8.96,9.19
"Cc1cc2nc[nH]c2cc1-c1ccc(C[C@H](NC(=O)[C@H]2CC[C@H](CN)CC2)C(=O)Nc2ccc3c(=O)[nH][nH]c3c2)cc1 [Example 8, N-alpha-{[trans-4-(Aminomethyl)cyclohexyl]carbonyl}-4-(5-methyl-1H-benzimidazol-6-yl)-N-(3-oxo-2,3-dihydro-1H-indazol-6-yl)-L-phenylalaninamide hydrochloride]",8.22,7.68
"NC[C@H]1CC[C@H](C(=O)N[C@@H](Cc2ccc(-c3ccc4c(c3)NC(=O)CC4)cc2)C(=O)Nc2ccc(-c3nn[nH]n3)cc2)CC1 [Example 9, N-alpha-{[trans-4-(Aminomethyl)cyclohexyl]carbonyl}-4-(2-oxo-1,2,3,4-tetrahydroquinolin-7-yl)-N-[4-(2H-tetrazol-5-yl)phenyl]-L-phenylalaninamide hydrochloride]",8.43,7.60
"NC[C@H]1CC[C@H](C(=O)N[C@@H](Cc2ccc(-c3ccc4c(c3)NC(=O)CC4)cc2)C(=O)Nc2ccc(-c3nn[nH]n3)c(F)c2)CC1 [Example 12, N-alpha-{[trans-4-(Aminomethyl)cyclohexyl]carbonyl}-N-[3-fluoro-4-(2H-tetrazol-5-yl)phenyl]-4-(2-oxo-1,2,3,4-tetrahydroquinolin-7-yl)-L-phenylalaninamide hydrochloride]",8.62,8.23
"Cc1cc2[nH]c(C(C)C)nc2cc1-c1ccc(C[C@H](NC(=O)[C@H]2CC[C@H](CN)CC2)C(=O)Nc2ccc3[nH]c(=O)[nH]c3c2)cc1 [Example 19, N-alpha-{[trans-4-(Aminomethyl)cyclohexyl]carbonyl}-4-(2-isopropyl-6-methyl-1H-benzimidazol-5-yl)-N-(2-oxo-2,3-dihydro-1H-benzimidazol-5-yl)-L-phenylalaninamide]",8.51,8.89
"Cc1cc2nc(C(C)C)[nH]c2cc1-c1ccc(C[C@H](NC(=O)[C@H]2CC[C@H](CN)CC2)C(=O)Nc2ccc(-c3nnc(C(F)(F)C(F)(F)C(=O)O)[nH]3)cc2)cc1 [Example 24, 3-[5-(4-{[N-{[trans-4-(Aminomethyl)cyclohexyl]carbonyl}-4-(2-isopropyl-6-methyl-1H-benzimidazol-5-yl)-L-phenylalanyl]amino}phenyl)-4H-1,2,4-triazol-3-yl]-2,2,3,3-tetrafluoropropanoic acid hydrochloride]",9.30,8.85
